Assay results taken from patent US10030059B2, “Modulators of gamma-C-cytokine activity” (Bioniz, LLC, priority 2015, dated 2018).
Peptide text beside a SMILES is read from it.

Test system: T-cells in HAM/TSP patient PBMC
Experiment: Ex vivo spontaneous T-cell proliferation assay using HAM/TSP peripheral blood
Format: cell-based, human
Conditions: HAM/TSP peripheral blood ex vivo culture
Description: Proliferation assays were performed on HAM/TSP patient blood samples with and without the addition of BNZ-γ. These assays evaluated the ability of BNZ-γ to block the function of cytokines, such as IL-2 and IL-15, present in the ex vivo HAM/TSP patient blood culture and prevent spontaneous T-cell proliferation in these samples.
In an ex vivo spontaneous T-cell proliferation assay, PBMC from HAM/TSP patient was cultured at 1×10(6) cells per well of a 96 well plate in RPMI-10% FCS. Increasing concentrations of BNZ-γ peptide were added to each well. As a control, an irrelevant peptide was used in similar fashion. The cells were incubated in a 37° C. CO2 incubator for 3, 4, and 6 days. The amount of 1 μCi of ^3H-thymidine was added to the cells. After an additional 6 hour incubation, cells were harvested their proliferation rate was measured. As indicated in FIG. 4A-FIG. 4D, BNZ-γ peptide inhibits the spontaneous proliferation of T-cells in HAM/TSP culture at a concentration of about 1 μg/ml.
Other immunological markers were additionally measured in this assay. The percentage of the viral specific CD8 cells was measured during the ex vivo culture using viral protein tetramers. The population of CD4+CD25+ cells, a marker of T-cell activation, as well as Ki67 staining, a marker of T-cell proliferation, was monitored in a flow cytometry assay.

SMILES: CC[C@H](C)[C@H](N)C(=O)N[C@@H](CCCCN)C(=O)N[C@@H](CCC(=O)O)C(=O)N[C@@H](Cc1ccccc1)C(=O)N[C@@H](CC(C)C)C(=O)N[C@@H](CCC(N)=O)C(=O)N[C@@H](CCCNC(=N)N)C(=O)N[C@@H](Cc1ccccc1)C(=O)N[C@H](C(=O)N[C@@H](Cc1c[nH]cn1)C(=O)N[C@H](C(=O)N[C@H](C(=O)N[C@@H](CCC(N)=O)C(=O)N[C@@H](CO)C(=O)N[C@H](C(=O)N[C@H](C(=O)N[C@@H](CC(N)=O)C(=O)N[C@H](C(=O)N[C@@H](CO)C(=O)O)[C@@H](C)O)[C@@H](C)CC)[C@@H](C)CC)C(C)C)[C@@H](C)CC)[C@@H](C)CC [BNZ-γ, I-K-E-F-L-Q-R-F-I-H-I-V-Q-S-I-I-N-T-S] (H-IKEFLQRFIHIVQSIINTS-OH)
- percent of live cells by Guava staining: not impacted
